Results: patent publication US6737383B1, “Herbicidal oxadiazolidines” (priority 1999, dated 2004)

Columns and labels:
tall mallow = assay: Test D tall mallow; format: in vivo, Malva sylvestris; conditions: Preemergence, 0 to 100 scale
Method in brief: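 Scoring used a 0–100 visual injury scale, with 0 meaning no effect and 100 complete control, assessed 14–21 days after application alongside untreated pots. Preemergence treatments went onto sandy loam surfaces of separately potted seeds within a day of sowing.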

bamyardgrass = assay: Test B flood test barnyardgrass; format: in vivo, Echinochloa crus-galli
Method in brief: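 Each value is a visual injury score relative to controls, with 10 meaning complete control and 0 no effect. Evaluation took place twelve to sixteen days after the 2-leaf-stage plants were treated and kept in the greenhouse.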

blackgrass = assay: Test E blackgrass; format: in vivo, Alopecurus myosuroides; conditions: Preemergence
giant foxtail = assay: Test B pre/postemergence giant foxtail; format: in vivo, Setaria faberii
Method in brief: (§1)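 Herbicidal effect was estimated by eye on a ten-point control scale after plants spent twelve to sixteen days in a greenhouse following soil or foliar treatment. Foliar sprays targeted plants at one to four leaves; all doses were formulated in a non-phytotoxic solvent with surfactant.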

goosegrass = assay: Test D goosegrass; format: in vivo, Eleusine indica; conditions: Preemergence, 0 to 100 scale
Text: (§2) Seeds, tubers, or plant parts of Alexandergrass (Brachiaria plantaginea), bermuda-grass (Cynodon dactylon), common pursiane (Portulaca oleracea), common ragweed (Ambrosia elatior), common groundsel (Senecio vulgaris), dallisgrass (Paspalum dilatatum), goosegrass (Eleusine indica), guineagrass (Panicum maximum), itchgrass (Rottboellia exaltata), Johnson grass (Sorghum halepense), large crabgrass (Digitaria sanguinalis), pitted morningglory (Ipomoea lacunosa), purple nutsedge (Cyperus rotundus), sandbur (Cenchrus echinatus), sourgrass (Trichachne insularis), Spanishneedles (Bidens bipinnata), surinam grass (Brachiaria decumbens) and tall mallow (Malva sylvestris) were planted into greenhouse pots of flats containing greenhouse planting medium. Plant species were grown in separate pots or individual compartments. Preemergence applications were made within one day of planting the seed or plant part.
(§3) Test chemicals were formulated in a non-phytotoxic solvent mixture which included a surfactant and applied preemergence to the surface of the pot containing seeds in a sandy loam soil. Untreated control pots and treated pots were placed in the greenhouse for growth and visually evaluated for injury 14 to 21 days after herbicide application. Plant response ratings, summarized in Table C, are based on a 0 to 100 scale where 0 is no injury and 100 is complete control. A dash (−) response means no test result.

morningglory = assay: Test B pre/postemergence morningglory; format: in vivo, Ipomoea hederacea
Method in brief: as §1

purple nutsedge = assay: Test D purple nutsedge; format: in vivo, Cyperus rotundus; conditions: Preemergence, 0 to 100 scale
Text: as §2, §3

winter wheat [1] = assay: Test E winter wheat; format: in vivo, Triticum aestivum; conditions: Preemergence
cocklebur = assay: Test B pre/postemergence cocklebur; format: in vivo, Xanthium strumarium
Method in brief: as §1

green foxtail = assay: Test E green foxtail; format: in vivo, Setaria viridis; conditions: Preemergence
wild oat = assay: Test E wild oat; format: in vivo, Avena fatua; conditions: Preemergence
Italian ryegrass = assay: Test E Italian ryegrass; format: in vivo, Lolium multiflorum; conditions: Preemergence
Alexandergrass = assay: Test D Alexandergrass; format: in vivo, Brachiaria plantaginea; conditions: Preemergence, 0 to 100 scale
Text: as §2, §3

winter wheat [2] = assay: Test E winter wheat; format: in vivo, Triticum aestivum; conditions: Postemergence
Method in brief: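 For postemergence, sowings are timed so plants reach the 1- to 4-leaf stage at spraying. Test compound is applied in a surfactant-containing solvent mixture that is non-phytotoxic. Response is judged by eye against untreated controls after approximately 21 to 28 days.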

winter barley = assay: Test E winter barley; format: in vivo, Hordeum vulgare; conditions: Preemergence
[3] = Rate 16 g/ha, 0 no injury, 100 complete control
[4] = Rate 32 g/ha, 0 no injury, 100 complete control
[5] = Rate 64 g/ha, 0 no injury, 100 complete control
[6] = Rate 125 g/ha, 0 no injury, 100 complete control
[7] = Postemergence, Rate 62 g/ha, scale 0 to 10, 0 is no effect, 10 is complete control
[8] = Postemergence, Rate 1000 g/ha, scale 0 to 10 (0 no effect, 10 complete control)
[9] = Rate 125 g/ha, 0 to 100 scale (0 no effect, 100 complete control)
[10] = Rate 500 g/ha, 0 to 100 scale where 0 is no effect and 100 is complete control
[11] = Rate 1000 g/ha, 0 to 100 scale where 0 is no effect and 100 is complete control
[12] = Postemergence, Rate 250 g/ha, scale 0 to 10, 0 no effect, 10 complete control
[13] = Preemergence, Rate 31 g/ha, visual rating, scale 0 to 10 (0 no effect, 10 complete control)
[14] = Preemergence, Rate 62 g/ha, scale 0 to 10, 0 is no effect, 10 is complete control
[15] = Preemergence, Rate 125 g/ha, scale 0 to 10 (0 no effect, 10 complete control)
[16] = Preemergence, Rate 250 g/ha, scale of 0 to 10 where 0 is no effect and 10 is complete control
[17] = Preemergence, Rate 500 g/ha, scale 0 (no effect) to 10 (complete control)
[18] = Rate 31 g/ha, Postemergence, scale 0 to 10
[19] = Rate 125 g/ha, Postemergence, scale 0 to 10, 0 no effect, 10 complete control
[20] = Rate 500 g/ha, Postemergence, 0 to 10 scale (0 no effect, 10 complete control)
[21] = Rate 1000 g/ha, Preemergence, scale 0 to 10 (0 no effect, 10 complete control)

Cc1ccccc1-n1c(=O)on(C(=O)N(c2ccc(F)cc2)C(C)C)c1=O [Compound 4]
4: Barnyardgrass plant response rating (bamyardgrass; [8]) | Barnyardgrass plant response rating (bamyardgrass; Rate 500 g/ha, Postemergence section of Table B, 0 to 10 scale (0 no effect, 10 complete control)) | Giant foxtail plant response rating (giant foxtail; [20])
0: Plant response rating, Tall Mallow (tall mallow; [3]) | Plant response rating, Tall Mallow (tall mallow; [4]) | Tall Mallow plant response rating (tall mallow; [5]) | Tall Mallow plant response rating (tall mallow; [6]) | Barnyardgrass plant response rating (bamyardgrass; [7]) | Barnyardgrass plant response rating (bamyardgrass; Rate 31 g/ha, Postemergence section (flood test species), scale 0 to 10) | Barnyardgrass plant response rating (bamyardgrass; Rate 125 g/ha, Postemergence section (flood test species), scale 0 to 10, 0 no effect, 10 complete control) | Giant foxtail plant response rating (giant foxtail; [7]) | Giant foxtail plant response rating (giant foxtail; [18]) | Morningglory plant response rating (morningglory; [7]) | Morningglory plant response rating (morningglory; [13]) | Plant response rating, Morningglory (morningglory; [14]) | Plant response rating, Morningglory (morningglory; [15]) | Plant response rating, Morningglory (morningglory; [16]) | Morningglory plant response rating (morningglory; [17]) | Morningglory plant response rating (morningglory; [18]) | Plant response rating, Morningglory (morningglory; [21]) | Plant response rating, Purple nutsedge (purple nutsedge; [3]) | Plant response rating, Purple nutsedge (purple nutsedge; [4]) | Purple nutsedge plant response rating (purple nutsedge; [5]) | Purple nutsedge plant response rating (purple nutsedge; [6]) | Plant response rating, Purple nutsedge (purple nutsedge; Rate 250 g/ha) | Plant response rating, Purple nutsedge (purple nutsedge; Rate 500 g/ha) | Plant response rating, Wheat (winter) (winter wheat [1]; [9]) | Plant response rating, Wheat (winter) (winter wheat [1]; Rate 250 g/ha, 0 to 100 scale) | Plant response rating, Wheat (winter) (winter wheat [1]; [10]) | Plant response rating, Wheat (winter) (winter wheat [1]; [11]) | Cocklebur plant response rating (cocklebur; [7]) | Cocklebur plant response rating (cocklebur; [13]) | Plant response rating, Cocklebur (cocklebur; [14]) | Plant response rating, Cocklebur (cocklebur; [15]) | Plant response rating, Cocklebur (cocklebur; [16]) | Cocklebur plant response rating (cocklebur; [17]) | Cocklebur plant response rating (cocklebur; [18]) | Plant response rating, Cocklebur (cocklebur; [21]) | Plant response rating, Wheat (winter) (winter wheat [2]; Rate 125 g/ha, 0 to 100 scale) | Plant response rating, Wheat (winter) (winter wheat [2]; Rate 250 g/ha, 0 to 100 scale (0 no effect, 100 complete control)) | Plant response rating, Wheat (winter) (winter wheat [2]; Rate 1000 g/ha, 0 to 100 scale, 0 is no effect and 100 is complete control) | Plant response rating, Wheat (winter) (winter wheat [2]; Rate 500 g/ha, 0 to 100 scale, 0 no effect, 100 complete control)
70: Plant response rating, Goosegrass (goosegrass; [3])
6: Giant foxtail plant response rating (giant foxtail; [8]) | Cocklebur plant response rating (cocklebur; [12]) | Cocklebur plant response rating (cocklebur; [20])
90: Plant response rating, Blackgrass (blackgrass; [10]) | Plant response rating, Alexandergrass (Alexandergrass; Rate 250 g/ha)
5: Giant foxtail plant response rating (giant foxtail; [19])
30: Plant response rating, Tall Mallow (tall mallow; Rate 250 g/ha) | Plant response rating, Tall Mallow (tall mallow; Rate 500 g/ha) | Plant response rating, Blackgrass (blackgrass; [9])
10: Plant response rating, Giant foxtail (giant foxtail; [16]) | Giant foxtail plant response rating (giant foxtail; [17]) | Plant response rating, Giant foxtail (giant foxtail; [21]) | Plant response rating, Wild oat (wild oat; [9]) | Plant response rating, Barley (winter) (winter barley; [9]) | Plant response rating, Barley (winter) (winter barley; Rate 250 g/ha, 0 to 100 scale) | Plant response rating, Barley (winter) (winter barley; [10]) | Plant response rating, Barley (winter) (winter barley; [11])
50: Plant response rating, Blackgrass (blackgrass; Rate 250 g/ha, 0 to 100 scale) | Plant response rating, Green foxtail (green foxtail; [9]) | Plant response rating, Wild oat (wild oat; [11]) | Plant response rating, I. Ryegrass (Italian ryegrass; [10])
80: Plant response rating, Alexandergrass (Alexandergrass; [5]) | Plant response rating, Alexandergrass (Alexandergrass; [6])
95: Plant response rating, Goosegrass (goosegrass; [5])
2: Morningglory plant response rating (morningglory; [19]) | Cocklebur plant response rating (cocklebur; [19])
9: Plant response rating, Giant foxtail (giant foxtail; [14]) | Plant response rating, Giant foxtail (giant foxtail; [15])
20: Plant response rating, I. Ryegrass (Italian ryegrass; [9]) | Plant response rating, I. Ryegrass (Italian ryegrass; Rate 250 g/ha, 0 to 100 scale) | Plant response rating, Alexandergrass (Alexandergrass; [3]) | Plant response rating, Alexandergrass (Alexandergrass; [4])
55: Plant response rating, Green foxtail (green foxtail; Rate 250 g/ha, 0 to 100 scale)
98: Plant response rating, Goosegrass (goosegrass; [6]) | Plant response rating, Goosegrass (goosegrass; Rate 250 g/ha)
85: Plant response rating, Goosegrass (goosegrass; [4]) | Plant response rating, I. Ryegrass (Italian ryegrass; [11])
8: Giant foxtail plant response rating (giant foxtail; [13]) | Cocklebur plant response rating (cocklebur; [8])
25: Plant response rating, Wild oat (wild oat; [10])
100: Plant response rating, Blackgrass (blackgrass; [11]) | Plant response rating, Goosegrass (goosegrass; Rate 500 g/ha) | Plant response rating, Green foxtail (green foxtail; [10]) | Plant response rating, Green foxtail (green foxtail; [11]) | Plant response rating, Alexandergrass (Alexandergrass; Rate 500 g/ha)
3: Barnyardgrass plant response rating (bamyardgrass; flood test, listed under Postemergence, Rate 250 g/ha, scale 0 to 10, 0 no effect, 10 complete control) | Giant foxtail plant response rating (giant foxtail; [12]) | Morningglory plant response rating (morningglory; [12]) | Morningglory plant response rating (morningglory; [8]) | Morningglory plant response rating (morningglory; [20])
